# Laboratory results taken from US5827821A, “Conformationally stabilized cell adhesion peptides” (The Burnham Institute, priority 1992, dated 1998).
# Where no end group is shown, it is not given here. [ ]: non-standard residue; d: D form. Pen = CC(C)(S)[C@H](N)C(=O)O
# What was measured:
# [1] = tested on: attachment of normal rat kidney cells to vitronectin; test: Cell adhesion assay: inhibition of attachment of normal rat kidney cells to vitronectin; format: cell-based; settings: vitronectin-coated wells, peptide 0 to 10.0 mM, FIG. 2
# Description: (§1) Fibronectin and vitronectin were purified from human plasma according to the methods of Ruoslahti et al., (1982) Meth. Enz. 82:803; and Hayman et al., (1983) PNAS 80:4003, respectively, both of which are incorporated herein by reference. The adhesion of normal rat kidney cells to fibronectin and vitronectin was assayed as described in Ruoslahti et al., Meth. Enz. supra. Briefly, 0.1 ml solution of fibronectin or vitronectin at a concentration of 12 μg/ml in 0.1M PBS was placed in each well of 96-well plastic microtiter plates and left for 2 hours at room temperature. The unattached protein was removed by washing three times with PBS.
# (§2) One day before the assay, a confluent culture of normal rat kidney cells was split 1:2 using standard tissue culture trypsin. The cells were washed three times with PBS, pH 7.2. […] Before the last centrifugation, a sample was taken and cell numbers and viability by trypan blue exclusion are determined. […]
# (§3) The unattached cells were removed simply by removing the medium and washing the wells. […] The cells were then fixed with 3% paraformaldehyde in PBS and stained with 1% toluidine blue, paraformaldehyde in PBS, and attached cells counted. Their number was determined using a cell counter that is capable of counting cells attached to a surface (Dynatech Laboratories, Alexandria, Va.). […]
# [2] = tested on: attachment of normal rat kidney cells to fibronectin; test: Cell adhesion assay: inhibition of attachment of normal rat kidney cells to fibronectin; format: cell-based; settings: fibronectin-coated wells, peptide 0 to 10.0 mM, FIG. 2
# Description: as §1, §2, §3
substance,measurement,setting,value
G[Pen]GRGDSPC (cysteine pairing not given here) [linear peptide],inhibition of attachment to vitronectin,[1],inhibited attachment of cells to both substrates at relatively similar concentrations
same,inhibition of attachment to fibronectin,[2],inhibited attachment of cells to both substrates at relatively similar concentrations
